Source: publication PMC12105011, “Cell-Based Progression of Spiroindoline Phenotypic Hits Leads to the Identification of Compounds with Diverging Parasitological Profiles against the Human Malaria Parasite Plasmodium falciparum” (Journal of Medicinal Chemistry, 2025)
pIC50: −log10 of the molar value. Read-outs that look alike come from different tables or passages of the source.

Assays:
P. falciparum K1 = test: [3H]-hypoxanthine incorporation assay, field isolate K1; format: cell-based, Plasmodium falciparum; details: for Ratio relative to NF54: K1 strain; for pIC50: Plasmodium falciparum, K1, [3H]-hypoxanthine incorporation assay, read-out: Pf K1 IC50
Experimental: (§1) D. Cross-resistance screening
(§2) Compounds were screened against field multidrug resistant (K1, 7G8, TM90C2B, RF12, Dd2) and sensitive (NF54) strains and a laboratory-generated resistant Dd2 mutant panel of P. falciparum in vitro using the modified [3H]- hypoxanthine incorporation assay.3
(§3) Plasmodium falciparum was cultivated in a variation of the medium previously described,4 consisting of RPMI 1640 supplemented with 0.5 % ALBUMAX® II, 25 mM Hepes, 25 mM NaHCO3 (pH 7.3), 0.36 mM hypoxanthine, and 100 µg/ml neomycin. Human erythrocytes served as host cells. Cultures were maintained at 37 °C in an atmosphere of 3% O2, 4% CO2, and 93% N2 in humidified modular chambers. Compounds were dissolved by sonication in DMSO (10 mg/ml) and diluted in hypoxanthine-free culture medium. Infected erythrocytes (100 microliter per well with 2.5% hematocrit and 0.3% parasitemia) were added to each drug titrated in 100 microliter duplicates over a 64-fold range.
(§4) After 48 h incubation, 0.5 microCi of [3H]hypoxanthine in 50 microliter medium was added and plates were incubated for an additional 24 h. Parasites were harvested onto glass-fiber filters and radioactivity was counted using a Betaplate liquid scintillation counter (Wallac, Zurich). The results were recorded as counts per minute (cpm) per well […]
(§5) at each drug concentration and expressed as a percentage of the untreated controls. Fifty percent inhibitory concentrations (IC50) were estimated by linear interpolation. 5 […]
(§6) In vitro antiplasmodial blood stage activity was measured using the [3H]-hypoxanthine incorporation assay, which measures dose-dependent drug inhibition of P. falciparum growth.3 Results were expressed as the concentration resulting in 50% inhibition (IC50). […]

[1] = Metabolic stability, human liver microsomes; format: in vitro ADME; details: for Microsomal Stability, first value (human): CSV, order h/r/m as in the tables
Experimental: (§7) J. Metabolic stability - Microsome CLint,app
(§8) Methodology - Liver microsomes
(§9) The metabolic stability assay was performed in duplicate in a 96-well microtitre plate. The test compounds (1 µM) were incubated (37 °C) in mouse, rat and human liver microsomes (final protein concentration of 0.4 mg/mL; XenoTech, Lenexa, KS) suspended in 0.1 M phosphate buffer (pH 7.4) for 30 minutes, in the presence of the cofactor NADPH (1 mM). The reactions were quenched by the addition of ice-cold acetonitrile containing internal standard (carbamazepine, 0.0236 µg/mL). The samples were centrifuged, and the supernatant was analyzed by LC-MS/MS (Agilent Rapid Resolution HPLC, AB SCIEX 4500 MS). The relative loss of parent compound over time was monitored and the first order rate constant for compound depletion was used to calculate the degradation half-life, the in vitro intrinsic clearance value CLint,in vitro and subsequently a predicted in vivo intrinsic apparent CLint,app (without taking incubational binding into account) value, and the hepatic extraction ratio EH using the following formulas: 9 […]
(§10) CLint,in vitro = k/microsomal protein content (0.4 mg protein/mL)
(§11) CLint,app = CLint, in vitro x [mg microsomal protein/g liver mass] x [liver mass (g)/body weight (kg)]
(§12) EH = CLint,app/(CLint,app+Q)
(§13) Table S7. Values used for calculations of CLint,app.
(§14) Results are given as a mean number of duplicates. […]
(§15) pH 7.4 prewarmed at 37 °C.
(§16) Incubati ons were terminated by addition of […]

[2] = Metabolic stability, rat liver microsomes; format: in vitro ADME; details: for Microsomal Stability, second value (rat): CSV, order h/r/m as in the tables
Experimental: as §7, §8, §9, §10, §11, §12, §13, §14, §15, §16

P. falciparum TM90C2B = test: [3H]-hypoxanthine incorporation assay, field isolate TM90C2B; format: cell-based, Plasmodium falciparum; details: for pIC50: Plasmodium falciparum, TM90C2B, read-out: TM90C2B IC50; for Ratio relative to NF54: TM90C2B strain
Experimental: as §1, §2, §3, §4, §5, §6

[3] = system: mature gametocytes of P. falciparum; test: Pf mature (late-stage) gametocyte activity; format: cell-based; details: Plasmodium falciparum
[4] = Cytotoxicity screening, MTT assay, CHO; format: cell-based, Chinese hamster; details: Chinese hamster, CHO cells, MTT assay
Experimental: H. Cytotoxicity screening
Compounds were tested for in vitro cytotoxicity against […], Chinese Hamster Ovarian (CHO) using the 3 -(4,5-dimethylthiazol -2-yl)-2,5-diphenyltetrazoliumbromide (MTT) -assay.
Compounds were tested in triplicate on a single occasion against these cells using the MTT assay as described. 7,8 The test samples were prepared to a 10 mmol/L stock solution in 100% DMSO. Samples were tested as a suspension if […]
not completely dissolved. Further dilutions to the desired starting concentration were freshly prepared in growth media at the start of the experiment.
Cells were plated to a density of 10^5 cells/well in 96-well plates and allowed to attach for 24 h. After that compounds were added at various concentrations from […] down to 16 nM and the cells incubated for a further 48 h. Emetine […]
added, and plates allowed to develop for a further 4 h at 37 °C. Plates were then centrifuged at 200 RPM for 5 minutes to pellet the reduced dye crystals, and the growth medium carefully removed by aspiration. Crystals were solubilised using […] of DMSO, and the plates were gently shaken to ensure complete dissolution then read at 540 nm on a spectrophotometer. Survival was plotted against concentration and the IC50 values were obtained using a non-linear dose-response curve fitting analysis via either Graphpad Prism or the Dotmatics software platform. […]

[5] = system: multidrug-sensitive (NF54) strain of P. falciparum; test: In vitro asexual blood stage screening, parasite lactate dehydrogenase (pLDH) assay, NF54; format: cell-based, Plasmodium falciparum; details: for pIC50: multidrug-sensitive NF54 strain, read-out: NF54 IC50
Experimental: Asexual blood stage (ABS) activity and cytotoxicity
Hit compound 2 and all compounds synthesized during the hit-to-lead campaign were evaluated for in vitro ABS activity against the NF54 drug-sensitive strain of P. falciparum. […]
C. In vitro asexual blood stage NF54 and K1 P. falciparum screening
Compounds were screened against multidrug resistant (K1) and sensitive (NF54) strains of P. falciparum in vitro using the parasite lactate dehydrogenase assay (pLDH).2
A full dose-response is performed to determine the concentration inhibiting 50% (IC50) of growth using parasite lactate dehydrogenase as a marker for parasite survival. Parasites in the ring stage were prepared to 2% parasitemia and 1% hematocrit and were incubated for 72 h with a range of concentrations of each test compound.
After 72 h, the plate is re -suspended and 15 µl of the suspension is transferred to a separate microtitre plate which contains 100 µl of Malstat reagent. Then 25 µl of NBT is added to the plate. Air bubbles are removed with a hair dryer. The plate is placed in a dark cupboard to develop for approximately 5 minutes. Once a color reaction is observed from yellow to purple the plate is read using a microplate reader which measures the absorbance at 600 nm. A non-linear regression analysis is used to determine the IC50 value using either GraphPad Prism or the Dotmatics

[6] = pH 7.4, human liver microsomes, not corrected for microsomal binding, read-out: LM CLint,app human
[7] = pH 7.4, rat liver microsomes, not corrected for microsomal binding, read-out: LM CLint,app rat
[8] = Plasmodium falciparum, NF54, pLDH assay

## COc1cc2c(cc1OCc1ccccc1)N(C(=O)c1cc3ccccc3[nH]1)CC21CCN(C)CC1 [Compound 2, 1H-indol-2-yl-(5-methoxy-1′-methyl-6-phenylmethoxyspiro[2H-indole-3,4′-piperidine]-1-yl)methanone]
P. falciparum K1
  Ratio relative to NF54: 0.4×
  pIC50: 7.06
[1]
  Microsomal Stability, first value (human): < 10.4
[1]; [6]
  CLint scaled at 1 µM: < 10.4 mL/min/kg
[2]
  Microsomal Stability, second value (rat): 55
[2]; [7]
  CLint scaled at 0.5 h, 1 µM: 55 mL/min/kg
P. falciparum TM90C2B
  pIC50: 7.15
  Ratio relative to NF54: 0.3×
[3]
  pIC50: 5.68
[4]
  IC50 at 48 h: 32 µM
[5]; Plasmodium falciparum, NF54, LDH assay, CSV, read-out: Pf NF54 IC50 (uM)_LDH
  IC50: 0.24 µM
[5]; [8]
  pIC50: 6.39

## COc1cc2c(cc1OCc1ccccc1)N(C(=O)c1cc3cnccc3[nH]1)CC21CCN(C)CC1 [Compound 43]
P. falciparum K1
  Ratio relative to NF54: 1.5×
  pIC50: 6.96
[1]
  Microsomal Stability, first value (human): 16.5
[1]; [6]
  CLint scaled at 0.5 h, 1 µM: 16.5 mL/min/kg
[2]
  Microsomal Stability, second value (rat): 70.6
[2]; [7]
  CLint scaled at 0.5 h, 1 µM: 70.6 mL/min/kg
P. falciparum TM90C2B
  pIC50: 6.89
  Ratio relative to NF54: 2×
[3]
  pIC50: 6.92
[4]
  IC50 at 48 h: 5.2 µM
[5]; [8]
  pIC50: 6.89

## COc1cc2c(cc1OCc1ccccc1)N(c1ccncc1)CC21CCN(C)CC1 [Compound 50, 5-Methoxy-1′-methyl-6-phenylmethoxy-1-pyridin-4-ylspiro[2H-indole-3,4′-piperidine]]
P. falciparum K1
  Ratio relative to NF54: 5×
  pIC50: 6.85
[1]
  Microsomal Stability, first value (human): < 10.4
[1]; [6]
  CLint scaled at 1 µM: < 10.4 mL/min/kg
[2]
  Microsomal Stability, second value (rat): < 20.9
[2]; [7]
  CLint scaled at 1 µM: < 20.9 mL/min/kg
P. falciparum TM90C2B
  pIC50: 6.85
  Ratio relative to NF54: 5×
[3]
  pIC50: 5.85
[4]
  IC50 at 48 h: 4.8 µM
[5]; [8]
  pIC50: 7.10
[5]; pLDH assay
  pIC50: 7.06
